The values that follow come from ChEMBL document CHEMBL2390823, “Aryl uracil inhibitors of hepatitis C virus NS5B polymerase: synthesis and characterization of analogs with a fused 5,6-bicyclic ring motif” (Bioorg Med Chem Lett, 2013).

A short description of series [1]: (§1) Oral bioavailability in rat at 5 mg/kg. The series is classed as ADME, organism-based. The settings on record: in vivo.
A short description of series [2]: (§2) AUC (0 to infinity) in rat at 5 mg/kg, po. Format: ADME, organism-based, Plasma. Set-up: dose 5 mg/kg, route oral, time infinity. As to conditions: plasma.
Series [3] can be described thus: Effective permeability of the compound by PAMPA. The series is classed as ADME. As to conditions: read-out: Peff. Background: In PAMPA a lipid-coated filter parts donor from acceptor wells.
Series [4] is described as follows: (§3) Tmax in rat at 5 mg/kg, po. On the set-up: dose 5 mg/kg, route oral. Format: ADME, organism-based. The settings on record: in vivo.
The test system of series [5] is Hepatitis C virus. In words: Antiviral activity against Hepatitis C virus genotype 1b infected in human HuH7 cells in presence of 40% human plasma. The series is classed as functional, organism-based, Hepacivirus hominis. The settings on record: Huh-7, Plasma.
The test system of series [6] is Hepatitis C virus. In words: Antiviral activity against Hepatitis C virus genotype 1a infected in human HuH7 cells in presence of 5% fetal calf serum. The series is classed as functional, organism-based, Hepacivirus hominis. The settings on record: subtype 1a, Huh-7.
Series [7] deals with Hepatitis C virus. In words: Antiviral activity against Hepatitis C virus genotype 1b infected in human HuH7 cells in presence of 5% fetal calf serum. As to conditions: Huh-7. Format: functional, organism-based, Hepacivirus hominis.
Series [8] relates to Hepatitis C virus. Briefly: Inhibition of Hepatitis C virus genotype 1b NS5B polymerase. On the set-up: species or system Hepatitis C virus subtype 1b.
A short description of series [9]: Inhibition of Hepatitis C virus genotype 1a NS5B polymerase. Set-up: species or system Hepatitis C virus subtype 1a.
Series [10] is described as follows: Half life in rat at 5 mg/kg, iv. The series is classed as ADME, organism-based. On the set-up: dose 5 mg/kg, route intravenous. As to conditions: in vivo.
Series [11] in a line: (§4) Plasma clearance in rat at 5 mg/kg, iv. Format: ADME, organism-based. As to conditions: plasma. On the set-up: dose 5 mg/kg, route intravenous.
Series [12] can be described thus: (§5) Half life in rat at 5 mg/kg, po. The series is classed as ADME, organism-based. As to conditions: in vivo. Set-up: dose 5 mg/kg, route oral.
A short description of series [13]: (§6) Cmax in rat at 5 mg/kg, po. Format: ADME, organism-based. Set-up: dose 5 mg/kg, route oral. The settings on record: in vivo.
The test system of series [14] is Rattus norvegicus. The description is as §1. Format: ADME, organism-based. As to conditions: in vivo.
Series [15] deals with Rattus norvegicus. Described as §2. The series is classed as ADME, organism-based, Plasma. Set-up: dose 5 mg/kg, route oral, time infinity. The settings on record: in vivo.
In series [16] the test system is Rattus norvegicus. Described as §3. Format: ADME, organism-based. Set-up: dose 5 mg/kg, route oral. The settings on record: in vivo.
Series [17] has as its system Rattus norvegicus. The description is as §4. On the set-up: dose 5 mg/kg, route intravenous. As to conditions: in vivo. The series is classed as ADME, organism-based.
Series [18] deals with Rattus norvegicus. The description is as §5. Format: ADME, organism-based. On the set-up: dose 5 mg/kg, route oral. As to conditions: in vivo.
In series [19] the test system is Rattus norvegicus. The description is as §6. Format: ADME, organism-based. Set-up: dose 5 mg/kg, route oral. As to conditions: in vivo.

The structures appear in SMILES notation. pEC50, pIC50: −log10 of the molar value. Where only a bound is given, the exact number is not on record here.

The term AUC(0-inf) denotes total exposure, with the tail of the curve extrapolated. High values mean more exposure, low ones less exposure. By Tmax is commonly meant the time from dosing to the highest level. For orientation: pEC50 means the negative decadic logarithm of the EC50, by convention in mol/L. Broadly, the pIC50 is −log10 of the IC50, conventionally taken in molar units. Lower therefore signals a large IC50. The half-life is the time in which the quantity being followed falls by half. A high value points to slow loss. For orientation: clearance means the rate of elimination divided by the concentration. A low value points to inefficient removal. What is called Cmax is the maximum level reached in the sampled fluid or tissue. On to `COc1c(-c2ccc3c(c2)CCC3CNS(C)(=O)=O)cc(-n2ccc(=O)[nH]c2=O)cc1C(C)(C)C` (centres undefined), for which the bioavailability in series [1] worked out at 119%. Moreover, the total exposure AUC(0-inf) in [2] is 13500 ng·h/mL. For the same compound, the Papp in series [3] was 8.93 ×10⁻⁶ cm/s. Moreover, in series [4], the time of peak concentration (Tmax) is 0.33 h. Further, the pEC50 in series [5] was 7.89; in [6], 7.70; in series [7], 8.52. Further, the results for the pIC50 in series [8] and in series [9] were 7.74 and 8.10, respectively. In addition, the half-life in [10] was 1.8 h; in series [12], 2.3 h. Also, in series [11], the clearance is 7.5 mL/min/kg. In addition, the Cmax in series [13] worked out at 2360 ng/mL.

In the case of `COc1c(-c2ccc3c(c2)CC=C3CNS(C)(=O)=O)cc(-n2ccc(=O)[nH]c2=O)cc1C(C)(C)C`, the bioavailability in series [1] is 86%. The compound also registered an AUC(0-inf) in series [2] of 7200 ng·h/mL. The Papp in series [3] was 5.43 ×10⁻⁶ cm/s. Besides, the Tmax in [4] was 6.17 h. The pEC50 is 7.66 in series [5], 7.85 in series [6] and 8.52 in series [7]. The figures for the pIC50 in [8] and in [9] were 7.96 and 8.22, respectively. For the same compound, the half-life is 1.9 h in series [10] and 3 h in [12]. For the same compound, the clearance in [11] was 12.8 mL/min/kg. Further, the Cmax in [13] was 660 ng/mL.

`COc1c(-c2ccc3c(CNS(C)(=O)=O)noc3c2)cc(-n2ccc(=O)[nH]c2=O)cc1C(C)(C)C`: the negative logarithm of the EC50 (pEC50) in series [6] and in series [7] was under 6.00 throughout. The pIC50 was 6.29 in series [8] and 6.27 in [9].

For the compound `COc1c(-c2ccc3c(CNS(C)(=O)=O)csc3c2)cc(-n2ccc(=O)[nH]c2=O)cc1C(C)(C)C`, in series [1], the bioavailability stood at 41%. In series [2], this compound returned an AUC(0-inf) of 9300 ng·h/mL. Also, the Papp in [3] was found to be 0.81 ×10⁻⁶ cm/s. For the same compound, in series [4], the time to peak (Tmax) stood at 0.5 h. Also, the pEC50 in series [5] is 7.34; in series [6], 7.57; in series [7], 8.52. The negative-log IC50 (pIC50) was 8.00 in [8] and 8.30 in [9]. Also, the half-life in [10] was 3.6 h; in series [12], 3.2 h. The same compound had a clearance in series [11] of 4.5 mL/min/kg. Besides, the concentration in [13] peaked (Cmax) at 1410 ng/mL.

With `COc1c(-c2ccc3nc(NS(C)(=O)=O)sc3c2)cc(-n2ccc(=O)[nH]c2=O)cc1C(C)(C)C`, in [3], the Papp was 1.4 ×10⁻⁶ cm/s. For the same compound, the pEC50 in series [6] and in [7] was under 6.00 in each case. In addition, the negative logarithm of the IC50 (pIC50) in series [8] was 7.35; in [9], 7.72.

On to `COc1c(-c2ccc3c(c2)CCC3(C)CNS(C)(=O)=O)cc(-n2ccc(=O)[nH]c2=O)cc1C(C)(C)C` (centres undefined), for which, in series [1], the bioavailability came to 62%. Moreover, in series [2], the area under the curve AUC(0-inf) came to 5100 ng·h/mL. In series [4], the Tmax was found to be 0.25 h. Besides, the negative logarithm of the EC50 (pEC50) in [5] is 6.25; in series [6], 6.32; in [7] it was 7.05. Also, the pIC50 in [8] was 7.39; in series [9], 7.80. Further, the half-life in series [10] was 2.3 h; in series [12] it was 2.4 h. Also, the clearance in series [11] was 10.2 mL/min/kg. For the same compound, in series [13], the peak level (Cmax) was 1010 ng/mL.

The AUC is the area under the concentration-time curve, a measure of exposure. A low value points to low exposure. As for `COc1c(C(=O)Nc2ccc(NS(C)(=O)=O)cc2)cc(N2CCC(=O)NC2=O)cc1C(C)(C)C`, the F in series [14] was found to be 1.4%. This compound showed an exposure (AUC) in series [15] of 500 ng·h/mL. For the same compound, in series [3], the Papp is 0.22 ×10⁻⁶ cm/s. In addition, the Tmax in series [16] worked out at 0.33 h. Also, the pEC50 in series [5] was 7.74; in series [6], 7.29; in [7], 7.57. Besides, the negative-log IC50 (pIC50) in [8] is 7.66; in series [9], 7.96. Further, the half-life in series [10] is 1.1 h. For the same compound, the CL in [17] stood at 25.5 mL/min/kg. This compound displayed a t1/2 in [18] of 1 h. In [19], this compound gave a peak concentration (Cmax) of 30 ng/mL.

As for `COc1c(-c2ccc3c(c2)CC=C3C(C)(C)NS(C)(=O)=O)cc(-n2ccc(=O)[nH]c2=O)cc1C(C)(C)C`, the Papp in series [3] was 4.06 ×10⁻⁶ cm/s. Also, the negative-log EC50 (pEC50) was under 6.00 in series [5], 6.00 in series [6] and under 6.00 in [7]. For the same compound, the pIC50 is 6.67 in series [8] and 6.73 in [9].

Regarding `COc1c(-c2ccc3c(c2)CC/C3=N\NS(C)(=O)=O)cc(-n2ccc(=O)[nH]c2=O)cc1C(C)(C)C`, the bioavailability in series [1] stood at 18%. In addition, the area under the curve AUC(0-inf) in series [2] was determined as 880 ng·h/mL. The Papp in [3] was found to be 0.47 ×10⁻⁶ cm/s. The time of peak concentration (Tmax) in series [4] came to 2.5 h. Further, the pEC50 in series [5] was 9.00; in series [6] it was 8.70; in series [7], 9.00. The pIC50 in series [8] and in series [9] was 8.52 in each case. Also, the figures for the half-life in series [10] and in series [12] were 2.8 h and 3 h, respectively. The clearance in series [11] was 19.8 mL/min/kg. In addition, the highest level in [13] (Cmax) was 120 ng/mL.

With `COc1c(-c2ccc3c(CNS(C)(=O)=O)coc3c2)cc(-n2ccc(=O)[nH]c2=O)cc1C(C)(C)C`, the pEC50 in series [5] is 6.59; in [6], 6.62; in series [7], 7.66. Besides, the negative-log IC50 (pIC50) in series [8] is 7.68; in [9], 8.05.

`COc1c(-c2ccc3c(c2)CCC3NNS(C)(=O)=O)cc(-n2ccc(=O)[nH]c2=O)cc1C(C)(C)C` (centres undefined): in series [3], the Papp amounted to 0.24 ×10⁻⁶ cm/s. For the same compound, the pEC50 is 6.02 in series [5], 6.85 in [6] and under 7.00 in series [7]. In addition, the pIC50 in series [8] is 7.33; in series [9], 7.48.

Consider `COc1c(-c2ccc3cc(CNS(C)(=O)=O)sc3c2)cc(-n2ccc(=O)[nH]c2=O)cc1C(C)(C)C`, for which the Papp in series [3] is 0.81 ×10⁻⁶ cm/s. Besides, the pEC50 in series [5] is under 5.00; in [6], under 6.00; in series [7] it was under 6.00. In addition, the results for the pIC50 in series [8] and in [9] were 6.61 and 6.74, respectively.

For the compound `COc1c(-c2ccc3c(c2)CC=C3CN(C)S(C)(=O)=O)cc(-n2ccc(=O)[nH]c2=O)cc1C(C)(C)C`, the results for the negative logarithm of the EC50 (pEC50) in series [5], in series [6] and in [7] were 7.30, 8.40 and 7.00, respectively. The negative-log IC50 (pIC50) is 7.70 in series [8] and 8.15 in [9].
